This note sets out measurements from patent publication EP1125931A1, “Biocidal alkyl-substituted-(hetero)aryl-ketoxime-O-ethers and the production method thereof” (Hunan Research Institute of Chemical Industry, priority 2000, dated 2001).

One data set relates to fungal pathogens. The experiment in a line: Test for antifungal activity (mycelial growth on PDA media). It is filed as cell-based. As to conditions: against one or more fungal pathogens; concentration 100 ppm; 72 hours of cultivation; read-out: growth inhibition rate. The method, then: Alkyl-substituted-(hetero)aryl-ketoxime-o-ether, ketone intermediate, or active oxime compound of this invention was diluted with an appropriate diluting agent (such as propanone) to prepare a parent solution having a certain concentration. One ml of this solution was taken with a pipette into 50 ml of molten PDA media. After shaking thoroughly, it was poured into two Petri dishes, to create duplicate. After cooling, a mycelial pad (diameter = about 4 mm) was taken and inoculated on the center of the culture dish. The diluting agent was used as the control. After inoculation, the dish was kept in an incubator set at an appropriate temperature. After 72 hours of cultivation, length (diameter of the colony) of the growth of mycelia was measured, and fungal growth inhibition rate was calculated.

In another data set the test system is Spinach army worm. The experiment in a line: Biological activity (LC50) against spinach army worm. It is filed as in vivo.
The subject of another data set is Spotted cutworm. The experiment in a line: Biological activity (LC50) against spotted cutworm. The class given is in vivo.
A further data set relates to American tobacco cutworm. The data set is described as follows: Biological activity (LC50) against American tobacco cutworm. It is filed as in vivo.
The next data set has as its system Green peach aphid. The data set is described as follows: Biological activity (LC50) against green peach aphid. It is filed as in vivo.
The test system of a further data set is Mythimne separata. The experiment in a line: Test for the biological activity against Mythimne separata (spray, Petri dish with corn fragments). The class given is in vivo. As to conditions: after 24 hours. The method, then: Emulsion oil or wettable powder of the alkyl-substituted-(hetero)aryl-ketoxime-o-ether, intermediate ketone, or the active oxime compound of this invention prepared by the procedure described in the Examples for preparing a controlling agent in agriculture described above was diluted with water to prepare a solution of agricultural chemical having a certain concentration.
Ten heads of Mythimne separata and 5 pieces of corn fragments were placed in a Petri dish, and it was sprayed with a certain amount of agricultural chemical solution. After the exposure, it was kept in a room for normal cultivation. After 24 hours, number of live and dead insects were counted. Test was run 3 times, and results were averaged. […] Some compounds (I) [such as Code No. 5, 8, and 30] shown in Table 1] gave 100% lethal rate even when the concentration was lower than 500 ppm.

In a further data set the test system is aphids Aphis fabae. The experiment in a line: Test for the biological activity against aphids (seedling dip). It is filed as in vivo. As to conditions: after 24 hours; for lethal rate: at a lower concentration (than 250 ppm); for aphids killed: concentration 250 ppm (content of effective component), average of 3 tests. As for the experimental part: Emulsion oil or wettable powder of the alkyl-substituted-(heteroaryl-ketoxime-o-ether, ketone intermediate or active oxime compound of this invention prepared by the method described in the Example for preparing a controlling agent in agriculture was diluted with water to prepare a solution of agricultural chemical having a certain concentration. Aphids were inoculated in the new seedlings (more than 15). Then, the seedlings, together with the aphids, were dipped in the solution of agricultural agent for 5 seconds, removed, and excess liquid was drained. They were placed in a water-absorbing sponge, and held by glass rods. After 24 hours, the number of live and dead aphids was examined. Test was run 3 times, and the results were averaged. With a series of compound (I) [Code No. 5, 8, 21, 22, 23, 30, 33, 46, 47, 48], the aphids were killed 100% when the concentration was 250 ppm (calculated as the content of effective component). Some compounds (I) [Code No. 5, 8, and 30 in Table 1] gave 100% lethal rate with the aphids, even at a lower concentration.

The subject of data set [1] is leafhopper Nephotetlix cimeticeps. The data set is described as follows: Test for the biological activity against leafhopper (rice seedling dip). As to conditions: after 24 hours; for kill rate: at a lower concentration (than 250 ppm); for leafhoppers killed: concentration 250 ppm (content of effective component), average of 3 tests. The class given is in vivo. As for the experimental part: Emulsion oil or wettable powder of the alkyl-substituted-(hetero)aryl-ketoxime-o-ether, ketone intermediate, or active oxime compound of this invention prepared by the method described in the Example for preparing a controlling agent in agriculture was diluted with water to prepare a solution of agricultural chemical having a certain concentration. Rice seedlings (second semester) were dipped in the solution of agricultural agent for 5 seconds, and then removed. It was drained and then placed in a large test tube. Each test tube contained 20 seedlings. Then, 20 leafhoppers (5th instar) were introduced in the tube, and the mouth of the tube was covered with a white cheesecloth. The tube was kept at room temperature, and number of live and dead leafhoppers was examined after 24 hours. Test was run 3 times, and results were averaged.

Where [2] appears, read: concentration 500 ppm (content of effective component), average of 3 tests.
The mark [3] stands for this setting: concentration lower than 500 ppm.

Where two headings read alike, the source gives them in different places.

Turning to `CSCC(=NO)c1ccc(Cl)cc1` [compound (III) Code No. 5, 1-(4-chlorophenyl)-2-methylthio ethanone oxime], in the data set with fungal pathogens, the inhibition at 100 ppm was greater than 90%.

With `CSCC(=NOCc1cccc(Oc2ccccc2)c1)c1ccc(Cl)cc1` [Code No. 5 E-form], the LC50 entry in the data set with Spinach army worm is “LC50 (ppm) < 5”; in the data set on Spotted cutworm, “LC50 (ppm) < 5”; with American tobacco cutworm it was “LC50 (ppm) < 10”; in the data set with Green peach aphid it was “LC50 (ppm) > 100”.

With `CSC(C)C(=NOCc1cccc(Oc2ccccc2)c1)c1ccc(Cl)cc1` (stereo not shown) [Code No. 30, 1-(4-chlorophenyl)-2-methylthio-O-((3-phenoxyphenyl)methyl) 1-propanone oxime], in the data set on Mythimne separata (setting [2]), the lethal rate entry was “exceeding 100%”. Also, the lethal rate in the data set on Mythimne separata (setting [3]) is recorded as 100%. Also, in the data set on aphids Aphis fabae, the lethal rate came out at 100% and the aphids killed came to 100%. Moreover, in data set [1], the kill rate worked out at 100% and the leafhoppers killed amounted to 100%.

For the molecule `CSC(C)C(=NOCc1cccc(Oc2ccccc2)c1)c1ccc(Cl)cc1` (stereo not shown) [Code No. 30 E-form, 1-(4-chlorophenyl)-2-methylthio-O-((3-phenoxyphenyl)methyl) 1-propanone oxime], the LC50 result was “LC50 (ppm) < 5” in the data set on Spinach army worm (listed as 30 E-form), “LC50 (ppm) < 1.5” in the data set on Spotted cutworm (listed as 30 E-form), “LC50 (ppm) < 5” in the data set with American tobacco cutworm (listed as 30 E-form) and “LC50 (ppm) < 15” in the data set on Green peach aphid (listed as 30 E-form).

Regarding `CSC(C)C(=NOCc1cccc(Oc2ccccc2)c1)c1ccc(Cl)cc1` (stereo not shown) [Code No. 30 Z-form, 1-(4-chlorophenyl)-2-methylthio-O-((3-phenoxyphenyl)methyl) 1-propanone oxime], the LC50 result in the data set on Spinach army worm (listed as 30 Z-form), in the data set on Spotted cutworm (listed as 30 Z-form), in the data set with American tobacco cutworm (listed as 30 Z-form) and in the data set with Green peach aphid (listed as 30 Z-form) was “LC50 (ppm) > 150” throughout.

`CSCC(=NOCc1cccc(Oc2ccccc2)c1)c1ccc(Cl)cc1` [Code No. 5]: the lethal rate entry in the data set on Mythimne separata (setting [2]) was “exceeding 100%”. This molecule had a lethal rate in the data set on Mythimne separata (setting [3]) of 100%. Further, in the data set with aphids Aphis fabae, the lethal rate was 100% and the aphids killed stood at 100%. Moreover, in data set [1], the kill rate is reported as 100% and the leafhoppers killed came to 100%.

As usually defined, the inhibition is the drop in the measured response relative to a control, in per cent.
